Measured values published in patent US7732633B2, “Arylsulfinate salts in photoinitiator systems for polymerization reactions” (3M Innovative Properties Company, priority 2003, dated 2010).

Experiments:
[1] = time to oxidize 50 weight percent of the compound at room temperature; solutions in acetonitrile-d3; pseudo-first order kinetics
Procedure: The oxidative stability of the exemplary substituted arylsulfinates was determined by proton nuclear magnetic resonance spectroscopy. Spectra of solutions of the compounds in acetonitrile-d3 were obtained at regular intervals. The resonances of the alkyl groups in the cations were used as an internal standard to assess the oxidation of the anion.

[2] = in N,N-dimethylformamide, 0.1 molar TBA PF6, versus Ag/0.01M AgNO3 reference electrode, peak current, first scan, 100 mV/sec
Procedure: The oxidation potential can be determined using cyclic voltammetry. As described herein, the oxidation potential is measured by dissolving the compound of interest in a non-aqueous solvent (i.e., N,N-dimethylformamide) containing a supporting electrolyte (i.e., 0.1 moles/liter tetrabutylammonium hexafluorophosphate). The resulting solution is purged with an inert gas such as argon. A three-electrode configuration is used that includes a working electrode (i.e., a glassy carbon electrode), a reference electrode (i.e., a silver wire in a 0.01 moles/liter of silver nitrate dissolved in acetonitrile), and a counter electrode (i.e., a platinum wire). The oxidation or reduction potential is the voltage corresponding to the maximum current for the oxidation reaction.
The scan rates were 100 mV/sec.
The electrochemical measurements were made using a three-electrode configuration: a reference electrode, a working electrode, and a counter electrode. The reference electrode was a fritted electrode (obtained from Sargent Welch, Buffalo Grove, Ill.) that was filled with 0.01M AgNO3 in acetonitrile and fitted with a silver wire 1 mm in diameter by approximately 19 cm in length. The counter electrode was a platinum wire 1.0 mm in diameter and approximately 16 cm long (overall length) formed into a coil having a coil diameter of approximately 10 mm and a coil length of about 7.5 cm. The working electrode was a glassy carbon electrode, approximately 3.5 mm in diameter (obtained from BAS, Inc., West Lafayette, Ind.). The glassy carbon electrode was polished using first a 3.0 micron aluminum oxide powder/deionized water slurry, then a 0.3 micron alpha alumina powder/deionized water slurry. The polishing powders were obtained from Buehler LTD, Evanston, Ill.
The cell was a 50 mL four neck round bottom flask. Each electrode was sealed in the flask using the appropriately sized rubber septum. The fourth inlet was used to introduce an argon purge to remove oxygen and keep atmospheric moisture out of the cell.
The supporting electrolyte was tetrabutylammonium hexafluorophosphate (TBA PF6) (obtained from Southwestern Analytical Chemicals, Inc., Austin, Tex.). The TBA PF6 was dried overnight in a vacuum oven at 80-90° C. before each experiment. The solvent was N,N-dimethylformamide (DMF), and it was used as received without further purification. The solvent was transferred to the electrochemical cell via syringe under an argon atmosphere to minimize atmospheric moisture uptake.
Electrochemical measurements were made by first preparing a 0.1 molar solution of TBA PF6 in DMF. […] The potential was determined at the peak current for the oxidation or reduction reaction on the first scan.

tetrabutylammonium 4-cyanobenzenesulfinate [Example 4]
t1/2 [1]: >300 days | Eox [2]: 0.15 V

tetrabutylammonium 4-trifluoromethylbenzenesulfinate [Example 3]
Eox [2]: 0.18 V

tetrabutylammonium 4-ethoxycarbonylbenzenesulfinate [Example 2]
Eox [2]: 0.11 V

tetrabutylammonium 4-chlorobenzenesulfinate [Example 1]
Eox [2]: 0.09 V
